Results reported in patent publication US9234000B2, “Benzylamine derivatives as inhibitors of plasma kallikrein” (KalVista Pharmaceuticals Limited, priority 2011, dated 2016).

Columns and labels:
Human KLK1 = Human KLK1 (Homo sapiens (Human), UniProt P06870); experiment: Determination of the IC50 for KLK1; type: biochemical; conditions: Human KLK1, 37° C., substrate H-DVal-Leu-Arg-AFC; Table 13
Description: Determination of the IC50 for KLK1
(§1) KLK1 inhibitory activity in vitro was determined using standard published methods (see e.g. Johansen et al., Int. J. Tiss. Reac. 1986, 8, 185; Shori et al., Biochem. Pharmacol., 1992, 43, 1209; Stürzebecher et al., Biol. Chem. Hoppe-Seyler, 1992, 373, 1025). Human KLK1 (Callbiochem) was incubated at 37° C. with the fluorogenic substrate H-DVal-Leu-Arg-AFC and various concentrations of the test compound. Residual enzyme activity (initial rate of reaction) was determined by measuring the change in optical absorbance at 410 nm and the IC50 value for the test compound was determined.

Human plasma kallikrein = Human plasma kallikrein (Homo sapiens (Human), UniProt P03952); experiment: Determination of the IC50 for plasma kallikrein; type: biochemical; conditions: 37° C., substrate H-DPro-Phe-Arg-AFC, read-out: IC50 (human PKal)
Description: Determination of the IC50 for Plasma Kallikrein
as §1, with “Plasma kallikrein” for “KLK1”, “Stiirzebecher” for “Stürzebecher”, “plasma kallikrein (Protogen)” for “KLK1 (Callbiochem)”, “H-DPro-Phe-Arg-AFC” for “H-DVal-Leu-Arg-AFC”

Human plasma kallikrein, sequence (P03952 391-638): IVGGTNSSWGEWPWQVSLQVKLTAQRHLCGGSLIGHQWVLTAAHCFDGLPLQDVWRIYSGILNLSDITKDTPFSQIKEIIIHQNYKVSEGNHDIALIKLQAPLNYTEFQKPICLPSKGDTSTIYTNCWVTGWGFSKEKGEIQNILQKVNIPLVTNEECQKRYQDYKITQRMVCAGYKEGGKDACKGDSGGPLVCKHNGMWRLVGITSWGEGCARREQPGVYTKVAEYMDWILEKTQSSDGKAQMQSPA
Human plasma kallikrein, sequence (P03952 20-390 partner): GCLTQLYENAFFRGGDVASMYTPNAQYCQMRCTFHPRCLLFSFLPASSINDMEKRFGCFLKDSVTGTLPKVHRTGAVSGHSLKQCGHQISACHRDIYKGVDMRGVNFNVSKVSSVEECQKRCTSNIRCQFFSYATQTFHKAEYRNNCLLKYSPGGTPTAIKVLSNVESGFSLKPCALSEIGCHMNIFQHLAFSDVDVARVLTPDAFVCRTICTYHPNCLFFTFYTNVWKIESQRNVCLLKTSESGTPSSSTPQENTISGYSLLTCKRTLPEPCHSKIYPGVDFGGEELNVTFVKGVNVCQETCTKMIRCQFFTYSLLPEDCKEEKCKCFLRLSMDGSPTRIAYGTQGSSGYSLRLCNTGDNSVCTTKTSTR
Human KLK1, sequence (P06870 25-262): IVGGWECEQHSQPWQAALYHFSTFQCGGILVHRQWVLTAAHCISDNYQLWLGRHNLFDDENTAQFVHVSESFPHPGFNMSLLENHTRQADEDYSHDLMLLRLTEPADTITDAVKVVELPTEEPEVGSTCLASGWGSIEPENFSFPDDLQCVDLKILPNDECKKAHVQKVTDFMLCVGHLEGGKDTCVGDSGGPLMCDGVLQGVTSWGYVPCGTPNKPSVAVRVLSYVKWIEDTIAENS

Row | SMILES | IC50 (Human KLK1) [nM] | IC50 (Human plasma kallikrein) [nM]
1 | CCOc1ccc(C[C@@H](NC(=O)CC(F)(F)F)C(=O)N[C@@H](Cc2ccccc2)C(=O)NCc2ccc(CN)cc2)cc1 [Example 109, N-[(R)-1-[(S)-1-(4-Aminomethyl-benzylcarbamoyl)-2-phenyl-ethylcarbamoyl]-2-(4-ethoxy-phenyl)-ethyl]-3,3,3-trifluoro-propionamide] | > 10000 | 155
2 | CCOc1ccc(C[C@@H](NC(=O)c2cc(C)nc(Cl)c2)C(=O)N[C@@H](Cc2ccccc2)C(=O)NCc2ccc(CN)cc2)cc1 [Example 110, N-[(R)-1-[(S)-1-(4-Aminomethyl-benzylcarbamoyl)-2-phenyl-ethylcarbamoyl]-2-(4-ethoxy-phenyl)-ethyl]-2-chloro-6-methyl-isonicotinamide] | > 10000 | 598
3 | CCOc1ccc(C[C@@H](NC(=O)c2sc(C)nc2C)C(=O)N[C@@H](Cc2ccccc2)C(=O)NCc2ccc(CN)cc2)cc1 [Example 111, 2,4-Dimethyl-thiazole-5-carboxylic acid [(R)-1-[(S)-1-(4-aminomethyl-benzylcarbamoyl)-2-phenyl-ethylcarbamoyl]-2-(4-ethoxy-phenyl)-ethyl]-amide] | > 10000 | 58
4 | CCOc1ccc(C[C@@H](NC(=O)c2cnc(C)s2)C(=O)N[C@@H](Cc2ccccc2)C(=O)NCc2ccc(CN)cc2)cc1 [Example 112, 2-Methyl-thiazole-5-carboxylic acid [(R)-1-[(S)-1-(4-aminomethyl-benzylcarbamoyl)-2-phenyl-ethylcarbamoyl]-2-(4-ethoxy-phenyl)-ethyl]-amide] | > 10000 | 298
5 | CCOc1ccc(C[C@@H](NC(=O)c2nc(C)oc2C)C(=O)N[C@@H](Cc2ccccc2)C(=O)NCc2ccc(CN)cc2)cc1 [Example 113, 2,5-Dimethyl-oxazole-4-carboxylic acid [(R)-1-[(S)-1-(4-aminomethyl-benzylcarbamoyl)-2-phenyl-ethylcarbamoyl]-2-(4-ethoxy-phenyl)-ethyl]-amide] | > 10000 | 455
6 | CCOc1ccc(C[C@@H](NC(=O)c2ccc3nc(C)ccc3c2)C(=O)N[C@@H](Cc2ccccc2)C(=O)NCc2ccc(CN)cc2)cc1 [Example 114, 2-Methyl-quinoline-6-carboxylic acid [(R)-1-[(S)-1-(4-aminomethyl-benzylcarbamoyl)-2-phenyl-ethylcarbamoyl]-2-(4-ethoxy-phenyl)-ethyl]-amide] | > 10000 | 427

Other lines, results leading:

Row | IC50 (Human KLK1) [nM] | IC50 (Human plasma kallikrein) [nM] | SMILES
7 | > 10000 | 185 | CCOc1ccc(C[C@@H](NC(=O)c2cccnc2C)C(=O)N[C@@H](Cc2ccccc2)C(=O)NCc2ccc(CN)cc2)cc1 [Example 105, N-[(R)-1-[(S)-1-(4-Aminomethyl-benzylcarbamoyl)-2-phenyl-ethylcarbamoyl]-2-(4-ethoxy-phenyl)-ethyl]-2-methyl-nicotinamide]
8 | 8400 | 256 | CCOc1ccc(C[C@@H](NC(=O)c2ccc(Cl)nc2Cl)C(=O)N[C@@H](Cc2ccccc2)C(=O)NCc2ccc(CN)cc2)cc1 [Example 106, N-[(R)-1-[(S)-1-(4-Aminomethyl-benzylcarbamoyl)-2-phenyl-ethylcarbamoyl]-2-(4-ethoxy-phenyl)-ethyl]-2,6-dichloro-nicotinamide]
9 | 7500 | 133 | CCOc1ccc(C[C@@H](NC(=O)c2cnc(Cl)c(Cl)c2)C(=O)N[C@@H](Cc2ccccc2)C(=O)NCc2ccc(CN)cc2)cc1 [Example 107, N-[(R)-1-[(S)-1-(4-Aminomethyl-benzylcarbamoyl)-2-phenyl-ethylcarbamoyl]-2-(4-ethoxy-phenyl)-ethyl]-5,6-dichloro-nicotinamide]
10 | > 10000 | 232 | CCOc1ccc(C[C@@H](NC(=O)c2cc(F)nc(F)c2F)C(=O)N[C@@H](Cc2ccccc2)C(=O)NCc2ccc(CN)cc2)cc1 [Example 108, N-[(R)-1-[(S)-1-(4-Aminomethyl-benzylcarbamoyl)-2-phenyl-ethylcarbamoyl]-2-(4-ethoxy-phenyl)-ethyl]-2,3,6-trifluoro-isonicotinamide]
